The source of these data is patent publication US20110034507A1, “FARNESOID X RECEPTOR AGONISTS” (SMITHKLINE BEECHAM CORPORATION, priority 2007, published 2011).

This assay concerns the target T1, Human FXRα Ligand Binding Domain (Homo sapiens, UniProt Q96RI1).
T1 construct: polyhistidine (pRSET-A vector leader) (N); made in house; host or cells: E. coli BL21 (DE3), pRSET-A vector
T1 sequence (Q96RI1 237-472 isoform Q96RI1-2): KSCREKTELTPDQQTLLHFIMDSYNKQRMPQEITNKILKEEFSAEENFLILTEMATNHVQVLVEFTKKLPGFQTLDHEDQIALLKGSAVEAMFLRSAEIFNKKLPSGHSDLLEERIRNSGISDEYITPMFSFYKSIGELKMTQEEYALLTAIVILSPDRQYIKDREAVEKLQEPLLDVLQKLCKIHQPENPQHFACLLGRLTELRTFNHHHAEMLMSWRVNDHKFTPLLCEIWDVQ
As to the kind of experiment: FXR Cofactor Binding Assay (ligand mediated SRC-1 cofactor peptide interaction, time resolved fluorescence). Type of assay: biochemical. Conditions: FXRα LBD / SRC-1 (LCD2, 676-700) peptide, TRF; read-out: Activity (pEC50) (converted). An excerpt:
Determination of a ligand mediated cofactor peptide interaction to quantify ligand binding to the nuclear receptor Farnesoid X Receptor (FXR). The method measures the ability of putative ligands to modulate the interaction between the purified bacterial expressed FXRα ligand binding domain (LBD) and a synthetic biotinylated peptide based on residues 676-700 of steroid receptor coactivator-1 (SRC-1) (LXXLL-containing domain-2 where L is the amino acid leucine and X indicates any other amino acid (LCD2), 676-700). The sequence of the SRC-1 peptide used is as published in Iannone, M. A., et al., 2001 Cytometry 44:326-337 where the N-terminus was biotinylated (B) and the C-terminus was amidated. Detection of the associated complex was measured by time resolved fluorescence (TRF). The purified LBD of FXR was labeled with biotin, then mixed with stoichiometric amounts of allophycocyanin (APC) labeled streptavidin (Molecular Probes). The biotinylated peptide was then mixed with a ½ stoichiometric amount of europium labeled streptavidin (Wallac Inc). Each was then blocked with a 5 fold excess of biotin and allowed to equilibrate for 15 min. Equimolar amounts of receptor and peptide were mixed together and were allowed to equilibrate for at least 30 min prior to the addition to either a variable or constant concentrations of the sample for which the affinity is to be determined. After equilibration, the time-resolved fluorescent signal was quantitated using a fluorescent plate reader. The affinity of the test compound was estimated from a plot of fluorescence versus concentration of test compound added.
Ligands that promote the complex formation induce a concentration-dependent increase in time-resolved fluorescent signal.
Human FXRα Ligand Binding Domain (FXRα LBD) was expressed in E. coli strain BL21 (DE3) as an amino-terminal polyhistidine tagged fusion protein. Expression was under the control of an isopropyl-β-D-thiogalactopyranoside (IPTG) inducible T7 promoter. DNA encoding this recombinant protein is subcloned into the pRSET-A expression vector (Invitrogen). The coding sequence of Human FXRα LBD was derived from Genbank accession number U 68233 (amino acids 237 to 472).
Ten-liter fermentation batches were grown in Rich PO4 media with 0.1 mg/mL Ampicillin at 25° C. for 12 hours, cooled to 9° C. and held at that temperature for 36 hours to a density of OD600=14. At this cell density, 0.25 mM IPTG is added and induction proceeded for 24 hours at 9° C., to a final OD600=16. Cells are harvested by centrifugation (20 minutes, 3500×gravity, 4° C.), and concentrated cell slurries were stored in phosphate buffered saline (PBS) at […].
Routinely, 30-40 g cell paste (equivalent to 2-3 liters of the fermentation batch) was resuspended in 200-250 mL Tris buffered saline (TBS), pH 7.2 (25 mM Tris-hydroxymethylamino methane (Tris), 150 mM sodium chloride). Cells were lysed by passing 3 times through a French Press and cell debris was removed by centrifugation (30 minutes, 20,000×gravity, 4° C.). The cleared supernatant was filtered through course pre-filters, and TBS, pH 7.2, 500 mM imidazole was added to obtain a final imidazole concentration of 50 mM. This lysate was loaded onto a column (6×8 cm) packed with Sepharose [Ni^++ charged] Chelation resin (Pharmacia) and pre-equilibrated with TBS pH 7.2/50 mM imidazole. After washing to baseline absorbance with equilibration buffer, the column was washed with one column volume of TBS pH 7.2 containing 90 mM imidazole. FXRα LBD was eluted directly with 365 mM imidazole. Column fractions were pooled and dialyzed against TBS, pH 7.2, containing 0.5 mM EDTA and 5 mM DTT. The dialyzed protein sample was concentrated using Centri-prep 10 K (Amicon) and subjected to size exclusion, using a column (3×90 cm) packed with Sepharose S-75 resin (Pharmacia) pre-equilibrated with TBS, pH 7.2, containing 0.5 mM ethylene diamine tetraacetic acid (EDTA) and 5 mM dithiothreitol (DTT).
As for `CC(C)c1onc(-c2c(Cl)cccc2Cl)c1COc1ccc2c(ccn2S(=O)(=O)c2cccc(C(=O)O)c2)c1` [Example 43, 3-{[5-({[3-(2,6-Dichlorophenyl)-5-(1-methylethyl)-4-isoxazolyl]methyl}oxy)-1H-indol-1-yl]sulfonyl}benzoic acid], the EC50 was 102 to 1000 nM.
With `CC(C)c1onc(-c2c(Cl)cccc2Cl)c1COc1ccc2c(c1)CN(c1cccc(C(=O)O)c1)C2=O` [Example 44, 3-[5-({[3-(2,6-Dichlorophenyl)-5-(1-methylethyl)-4-isoxazolyl]methyl}oxy)-1-oxo-1,3-dihydro-2H-isoindol-2-yl]benzoic acid], the EC50 was 102 to 1000 nM.
For `CC(C)c1onc(-c2c(Cl)cccc2Cl)c1COc1ccc2c(c1)CC(=O)N(c1cccc(C(=O)O)c1)C2` [Example 45, 3-[6-({[3-(2,6-Dichlorophenyl)-5-(1-methylethyl)-4-isoxazolyl]methyl}oxy)-3-oxo-3,4-dihydro-2(1H)-isoquinolinyl]benzoic acid], the EC50 is 1020 to 10000 nM.
Under `CC(C)c1onc(-c2c(Cl)cccc2Cl)c1COc1ccc2c(ccn2Cc2ccc(-c3nnn[nH]3)cc2)c1` [Example 46, 5-({[3-(2,6-Dichlorophenyl)-5-(1-methylethyl)-4-isoxazolyl]methyl}oxy)-1-{[4-(1H-tetrazol-5-yl)phenyl]methyl}-1H-indole] stands less than 100 nM.
Under `CC(C)c1onc(-c2c(Cl)cccc2Cl)c1COc1ccc2c(ccn2Cc2nc(C(=O)O)co2)c1` [Example 47, 2-{[5-({[3-(2,6-Dichlorophenyl)-5-(1-methylethyl)-4-isoxazolyl]methyl}oxy)-1H-indol-1-yl]methyl}-1,3-oxazole-4-carboxylic acid] stands 102 to 1000 nM; under `Cc1ccc(Cn2ccc3cc(OCc4c(-c5c(Cl)cccc5Cl)noc4C(C)C)ccc32)cc1C(=O)O` [Example 48, 5-{[5-({[3-(2,6-Dichlorophenyl)-5-(1-methylethyl)-4-isoxazolyl]methyl}oxy)-1H-indol-1-yl]methyl}-2-methylbenzoic acid], 102 to 1000 nM.
On to `CC(C)c1onc(-c2c(Cl)cccc2Cl)c1COc1ccc2c(ccn2Cc2cccc(C(=O)O)n2)c1` [Example 49, 6-{[5-({[3-(2,6-Dichlorophenyl)-5-(1-methylethyl)-4-isoxazolyl]methyl}oxy)-1H-indol-1-yl]methyl}-2-pyridinecarboxylic acid], for which the EC50 was 102 to 1000 nM.
As for `CC(C)c1onc(-c2c(Cl)cccc2Cl)c1COc1ccc2[nH]cc(Cc3cccc(C(=O)O)c3)c2c1` [Example 50, 3-{[5-({[3-(2,6-Dichlorophenyl)-5-(1-methylethyl)-4-isoxazolyl]methyl}oxy)-1H-indol-3-yl]methyl}benzoic acid], the EC50 is 1020 to 10000 nM.
Regarding `CC(C)c1onc(-c2c(Cl)cccc2Cl)c1COc1ccc2c(ccn2Cc2nc(C(=O)O)cs2)c1` [Example 51, 2-{[5-({[3-(2,6-Dichlorophenyl)-5-(1-methylethyl)-4-isoxazolyl]methyl}oxy)-1H-indol-1-yl]methyl}-1,3-thiazole-4-carboxylic acid], the EC50 was 102 to 1000 nM.
For the compound `CC(C)c1onc(-c2c(Cl)cccc2Cl)c1COc1ccc2c(Cc3cccc(C(=O)O)c3)c[nH]c2c1` [Example 52, 3-{[6-({[3-(2,6-Dichlorophenyl)-5-(1-methylethyl)-4-isoxazolyl]methyl}oxy)-1H-indol-3-yl]methyl}benzoic acid], the EC50 is 102 to 1000 nM.
Under `CC(C)c1onc(-c2c(Cl)cccc2Cl)c1COc1ccc2c(ccn2C(=O)N2CC[C@@H](C(=O)O)C2)c1` [Example 53, (3R)-1-{[5-({[3-(2,6-Dichlorophenyl)-5-(1-methylethyl)-4-isoxazolyl]methyl}oxy)-1H-indol-1-yl]carbonyl}-3-pyrrolidinecarboxylic acid] stands 102 to 1000 nM; under `CC(C)c1onc(-c2c(Cl)cccc2Cl)c1COc1ccc2sc(-c3cccc(C(=O)O)c3)cc2c1` [Example 54, 3-[5-({[3-(2,6-Dichlorophenyl)-5-(1-methylethyl)-4-isoxazolyl]methyl}oxy)-1-benzothien-2-yl]benzoic acid], less than 100 nM; under `CC(C)c1onc(-c2c(Cl)cccc2Cl)c1COc1ccc2c(ccn2C(=O)N2CC[C@H](C(=O)O)C2)c1` [Example 55, (3S)-1-{[5-({[3-(2,6-Dichlorophenyl)-5-(1-methylethyl)-4-isoxazolyl]methyl}oxy)-1H-indol-1-yl]carbonyl}-3-pyrrolidinecarboxylic acid], 102 to 1000 nM.
Under `CC(C)c1onc(-c2c(Cl)cccc2Cl)c1COc1ccc2[nH]c(-c3cccc(C(=O)O)c3)cc2c1` [Example 56, 3-[5-({[3-(2,6-Dichlorophenyl)-5-(1-methylethyl)-4-isoxazolyl]methyl}oxy)-1H-indol-2-yl]benzoic acid] stands 102 to 1000 nM; under `CC(C)c1onc(-c2c(Cl)cccc2Cl)c1COc1ccc2c(c1)CC(c1cccc(C(=O)O)c1)C2` (centres unmarked) [Example 57, 3-[5-({[3-(2,6-Dichlorophenyl)-5-(1-methylethyl)-4-isoxazolyl]methyl}oxy)-2,3-dihydro-1H-inden-2-yl]benzoic acid], 102 to 1000 nM.
Under `CC(C)c1onc(-c2c(Cl)cccc2Cl)c1COc1ccc2c(ccn2Cc2cccc(C(=O)O)c2)c1` [Example 59, 3-{[5-({[3-(2,6-Dichlorophenyl)-5-(1-methylethyl)-4-isoxazolyl]methyl}oxy)-1H-indol-1-yl]methyl}benzoic acid] stands 102 to 1000 nM; under `CC(C)c1onc(-c2c(Cl)cccc2Cl)c1COc1ccc2c(c1)CCN(c1cccc(C(=O)O)c1)C2=O` [Example 60, 3-[6-({[3-(2,6-Dichlorophenyl)-5-(1-methylethyl)-4-isoxazolyl]methyl}oxy)-1-oxo-3,4-dihydro-2(1H)-isoquinolinyl]benzoic acid], 102 to 1000 nM.
